Assays:
IDH1 R132C = IDH1 R132C (Homo sapiens, UniProt O75874, R132C); assay: In vitro NADPH depletion assay for IDH1m R132C inhibitors; format: biochemical; details: enzyme, diaphorase/resazurin readout, read-out: IDH R132C IC50
Protocol: A test compound is prepared as 10 mM stock in DMSO and diluted to 50× final concentration in DMSO, for a 50 μl reaction mixture. IDH enzyme activity converting alpha-ketoglutarate to 2-hydroxyglutaric acid is measured using a NADPH depletion assay. In the assay the remaining cofactor is measured at the end of the reaction with the addition of a catalytic excess of diaphorase and resazurin, to generate a fluorescent signal in proportion to the amount of NADPH remaining. IDH1-R132 homodimer enzyme is diluted to […] in 40 μl of Assay Buffer(150 mM NaCl, 20 mM Tris-Cl pH 7.5, 10 mM MgCl2, 0.05% BSA, 2 mM b-mercaptoethanol); 1 μl of test compound dilution in DMSO is added and the mixture is incubated for 60 minutes at room temperature. The reaction is started with the addition of 10 μl of Substrate Mix ([…], 5 mM alpha-ketoglutarate, in Assay Buffer) and the mixture is incubated for 90 minutes at room temperature. The reaction is terminated with the addition of 25 μl of Detection Buffer (36 μg/ml diaphorase, […], in 1× Assay Buffer), and is incubated for 1 minute before reading on a SpectraMax platereader at Ex544/Em590.
Compounds are assayed for their activity against IDH1 R132C following the same assay as above with the following modifications: Assay Buffer is (50 mM potassium phosphate, pH 6.5; 40 mM sodium carbonate, 5 mM MgCl2, 10% glycerol, 2 mM b-mercaptoethanol, and 0.03% BSA). The concentration of NADPH and alpha-ketoglutarate in the Substrate Buffer is 20 μM and 1 mM, respectively.
Representative compounds of formula I set forth in Table 1 were tested in this assay and the results are set forth below in Table 3.

IDH1 R132H = IDH1 R132H (Homo sapiens, UniProt O75874, R132H); assay: In vitro NADPH depletion assay for IDH1m R132H inhibitors; format: biochemical; details: enzyme, diaphorase/resazurin readout, read-out: IDH R132H IC50
Sequence of IDH1 R132H (O75874 whole entry R132H): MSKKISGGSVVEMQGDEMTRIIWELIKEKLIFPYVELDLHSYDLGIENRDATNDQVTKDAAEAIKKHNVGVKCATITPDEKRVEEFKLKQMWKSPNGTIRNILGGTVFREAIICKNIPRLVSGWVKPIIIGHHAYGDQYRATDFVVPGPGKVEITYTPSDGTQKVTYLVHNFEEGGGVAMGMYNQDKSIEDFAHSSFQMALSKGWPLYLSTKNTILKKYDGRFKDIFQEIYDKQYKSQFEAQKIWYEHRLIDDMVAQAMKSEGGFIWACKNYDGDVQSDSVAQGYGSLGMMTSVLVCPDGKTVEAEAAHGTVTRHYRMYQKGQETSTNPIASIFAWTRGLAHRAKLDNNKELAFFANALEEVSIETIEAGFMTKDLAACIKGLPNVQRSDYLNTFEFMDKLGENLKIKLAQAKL
Method in brief: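 IDH1-R132H homodimer […] was preincubated with compound for 60 min at room temperature in 20 mM Tris-Cl pH 7.5, 150 mM NaCl, 10 mM MgCl2, 0.05% BSA, 2 mM b-mercaptoethanol. Substrate mix (NADPH, 5 mM alpha-ketoglutarate) then reacted for 90 min. Remaining NADPH was read by diaphorase/resazurin fluorescence at Ex544/Em590.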

HT1080 cells = assay: Cellular assay, inhibition of 2-HG production (LC-MS) in HT1080 cells; format: cell-based; details: Homo sapiens, HT-1080, 48 hours, LC-MS of media
Method in brief: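 HT1080 cells (5000/well) were incubated 48 hours with compound, 0.2% DMSO final. Medium 2-HG was quantified by LC-MS, and IC50 was taken as the concentration giving 50% reduction versus DMSO control. Viability was read by CellTiter-Glo luminescence at 72 hours.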

Sequence of IDH1 R132C (O75874 whole entry R132C): as the sequence (O75874 whole entry R132H) above, with H132C counted along it

Structure (SMILES)	IC50 (IDH1 R132C)	IC50 (IDH1 R132H)	IC50 (HT1080 cells)
Cc1nc(Cl)c(Cl)n1CC(=O)N(c1cccc(F)c1)C(C(=O)NC1CC(F)(F)C1)c1ccccc1Cl (stereo not drawn) [Compound 87]	≤ 100 nM	≤ 100 nM	100 to 500 nM
COC(=O)N1[C@@H](C(=O)N(c2cccc(F)c2)[C@H](C(=O)NC2CC(F)(F)C2)c2ccccc2Cl)CCC1(C)C (single isomer, unassigned) [Compound 114]	≤ 100 nM	100 to 500 nM	100 to 500 nM
COC(=O)N(C)CC(=O)N(c1cccc(F)c1)C(C(=O)NC1CC(F)(F)C1)c1ccccc1Cl (stereo not drawn) [Compound 96]	100 to 500 nM	≤ 100 nM	500 to 1000 nM
COC(=O)N1CC[C@H](O)[C@H]1C(=O)N(c1cccc(F)c1)[C@H](C(=O)NC1CC(F)(F)C1)c1ccccc1Cl [Compound 91]	100 to 500 nM	≤ 100 nM	100 to 500 nM
COC(=O)NCC(=O)N(c1cccc(F)c1)C(C(=O)NC1CC(F)(F)C1)c1ccccc1Cl (stereo not drawn) [Compound 73, methyl 2-((1-(2-chlorophenyl)-2-(3,3-difluorocyclobutylamino)-2-oxoethyl)(3-fluorophenyl)amino)-2-oxoethylcarbamate]	100 to 500 nM	100 to 500 nM	500 to 1000 nM
C[C@H]1CC[C@@H](C(=O)N(c2cccc(F)c2)[C@H](C(=O)NC2CCC(F)(F)CC2)c2ccccc2Cl)N1c1ncccn1 [Compound 111, (2S,5S)—N—((S)-1-(2-chlorophenyl)-2-(4,4-difluorocyclohexylamino)-2-oxoethyl)-N-(3-fluorophenyl)-5-methyl-1-(pyrimidin-2-yl)pyrrolidine-2-carboxamide]	≤ 100 nM	≤ 100 nM	100 to 500 nM
COC(=O)N1CC[C@H]1C(=O)N(c1cccc(F)c1)[C@H](C(=O)NC1CC(F)(F)C1)c1ccccc1Cl [Compound 106]	100 to 500 nM	≤ 100 nM	100 to 500 nM
C[C@H]1CC[C@@H](C(=O)N(c2cccc(F)c2)[C@@H](C(=O)NC2CCC(F)(F)CC2)c2ccccc2Cl)N1c1ncccn1 [Compound 110, (2S,5S)—N—((R)-1-(2-chlorophenyl)-2-(4,4-difluorocyclohexylamino)-2-oxoethyl)-N-(3-fluorophenyl)-5-methyl-1-(pyrimidin-2-yl)pyrrolidine-2-carboxamide]	≤ 100 nM	≤ 100 nM	100 to 500 nM
COC(=O)N[C@@H](CO)C(=O)N(c1cccc(F)c1)[C@@H](C(=O)NC1CCCCC1)c1ccccc1Cl [Compound 85]	100 to 500 nM	≤ 100 nM	500 to 1000 nM
COC(=O)N1CCC[C@H]1C(=O)N(c1cccc(F)c1)[C@H](C(=O)NC1CC(F)(F)C1)c1c(Cl)cccc1Cl [Compound 66]	100 to 500 nM	100 to 500 nM	100 to 500 nM

Reference: patent US20160304556A1, “[…] ACTIVE COMPOUNDS AND THEIR METHODS OF USE” (AGIOS PHARMACEUTICALS, INC, priority 2012, published 2016)
